Results as given in ChEMBL document CHEMBL1122382, “An evaluation of certain chain-extended analogues of 9-beta-D-arabinofuranosyladenine for antiviral and cardiovascular activity” (1983).

Tests used:
Canis familiaris [1] = assay: Compound was evaluated for the cardiovascular activity, expressed as maximum percent response achieved with standard (administered intravenously at a dose of 0.10 mg/kg) at a dose of 1.0 mg/kg of compound; format: functional, Canis lupus familiaris, Heart
Human alphaherpesvirus 1 [2] = assay: Virus rating (VR) which is the weighted measurement of in vitro antiviral activity, based on the inhibition of virus-induced cytopathogenic effects. VR > 1, active.; format: functional
Human alphaherpesvirus 1 [3] = assay: Antiviral activity against herpes simplex virus type 1 (strain 377).; format: functional; details: read-out: ID50 (the source's name)
Human alphaherpesvirus 1 [4] = assay: Compound was evaluated for virus rating (VR) which is the weighted measurement of in vitro antiviral activity, based on the inhibition of HSV-1 virus-induced cytopathogenic effects. VR = 0.5-0.9 indicates marginal activity; format: functional
Human alphaherpesvirus 1 [5] = assay: Antiviral activity against herpes simplex virus type 1 (strain HF).; format: functional; details: read-out: ID50 (the source's name)
Human alphaherpesvirus 1 [6] = assay: Virus rating (VR) which is the weighted measurement of in vitro antiviral activity, based on the inhibition of HSV-1 virus-induced cytopathogenic effects. VR > 1, active.; format: functional
[7] = Compound was evaluated for antiviral activity of the compound, expressed as ID50 for the inhibition of cellular DNA and protein synthesis in wild-type cells; format: functional; details: read-out: ID50 (the source's name)
Ara-A [8] = assay: Compound was evaluated for antiviral activity of the compound, expressed as ID50 for the inhibition of cellular DNA and protein synthesis in ara-A resistant cells; format: functional; details: Homo sapiens; read-out: ID50 (the source's name)
[9] = Compound was evaluated for in vitro therapeutic index ratio of the ID50 for inhibition of cellular DNA and protein synthesis to the ID50 for inhibition of virus replication; format: functional
Canis familiaris [10] = assay: Compound was evaluated for the cardiovascular activity, expressed as maximum % response achieved with standard (administered intravenously at a dose of 0.10 mg/kg) at a dose of 1.0 mg/kg of the compound; format: functional, Canis lupus familiaris, Heart
Human alphaherpesvirus 1 [11] = assay: Compound was evaluated for virus rating (VR) which is the weighted measurement of in vitro antiviral activity, based on the inhibition of HSV-1 virus-induced cytopathogenic effects. VR > 1, active; format: functional
[12] = Compound was evaluated for antiviral activity expressed as ID50 for the inhibition of cellular DNA and protein synthesis in wild-type cells; format: functional; details: read-out: ID50 (the source's name)
Ara-A [13] = assay: Compound was evaluated for antiviral activity expressed as ID50 for the inhibition of cellular DNA and protein synthesis in ara-A resistant cells; format: functional; details: Homo sapiens; read-out: ID50 (the source's name)

SMILES | VR (Human alphaherpesvirus 1 [2]) | IC50 (Human alphaherpesvirus 1 [3]) [µM] | IC50 (Human alphaherpesvirus 1 [5]) [µM] | Ratio [9] | other results
NC(=O)CC[C@H]1OC(n2cnc3c(N)ncnc32)[C@@H](O)[C@@H]1O (some centres undefined) | 1.6 | 574 | – | – | Response (Canis familiaris [1]): 10%
Nc1ncnc2c1ncn2C1O[C@H](CCC(=O)O)[C@@H](O)[C@@H]1O (some centres undefined) | – | – | – | – | VR (Human alphaherpesvirus 1 [4]): 0.3
Nc1ncnc2c1ncn2C1O[C@H](CCCO)[C@@H](O)[C@@H]1O (some centres undefined) | – | 643 | 525 | 2.1 | VR (Human alphaherpesvirus 1 [6]): 1.5; IC50 [7]: 1880 µM; IC50 (Ara-A [8]): 1510 µM
CCOC(=O)CC[C@H]1OC(n2cnc3c(N)ncnc32)[C@@H](O)[C@@H]1O (some centres undefined) | – | 729 | – | – | Response (Canis familiaris [10]): 39%; VR (Human alphaherpesvirus 1 [11]): 1
Nc1ncnc2c1ncn2[C@@H]1O[C@H](CO)[C@@H](O)[C@H]1O [ADENOSINE] | 2.5 | 22 | 42 | 3.1 | IC50 [12]: 2.4 µM; IC50 (Ara-A [13]): 242 µM
